Data as given in patent publication US20120046331A1, “Antifungal Agents and Uses Thereof” (priority 2010, published 2012).

Key:
[1] = tested on: T. rubrum; experiment: Checkerboard microdilution Compound 8 + fluconazole, FIC Index (Example 2); type: cell-based, Trichophyton rubrum; details: Compound 8 in combination with fluconazole, one value per strain (MRL #)
Method: This example describes the in vitro activity of combinations of compounds according to the present invention and antifungal agents against clinical isolates of Trichophyton rubrum. Twenty clinical isolates Trichophyton rubrum, including 9 strains with elevated terbinafine MICs, taken from the culture collection of the Center for Medical Mycology, were tested.
(§1) MIC testing was performed according to the modification of the CLSI M38-A2 standard for dermatophytes developed at the Center (CLSI. Reference Method for Broth Dilution Antifungal Susceptibility Testing of Filamentous Fungi; Approved Standard-Second Edition. CLSI document M38-A2 [ISBN 1-56238-668-9]. CLSI, 940 West Valley Road, Suite 1400, Wayne, Pa. 19087-1898 USA, 2008; Ghannoum M A, et al. Intra- and Interlaboratory Study of a Method for Testing the Antifungal Susceptibilities of Dermatophytes. 2004 J Clin Microbiol 42:(7): 2977-2979). Compound 8 and fluconazole were tested in combination using a checkerboard microdilution method. The interaction between Compound 8 and fluconazole was determined by FIC Index, or Fractional Inhibitory Concentration Index, which assigns a numerical value to the interaction of the two antifungals.

[2] = tested on: T. mentagrophytes; experiment: as above; type: cell-based; details: Compound 8 in combination with fluconazole, one value per strain (MRL #)
Method: as §1

[3] = tested on: T. tonsurans; experiment: as above; type: cell-based; details: Compound 8 in combination with fluconazole, one value per strain (MRL #)
Method: as §1

[4] = tested on: M. canis; experiment: Checkerboard combination testing of compound 8 with antifungals, FIC (Example 1); type: cell-based, Microsporum canis
Method: (§2) This example describes the in vitro activity of combinations of compounds according to the present invention and antifungal agents against a collection of dermatophytic fungal pathogens. Antifungal susceptibility testing was adapted from the CLSI M38-A broth microdilution method for dermatophytes (NCCLS-M38-A2 2008). Combination testing was performed by checkerboard method (with compound 8 in combination with fluconazole, itraconazole or terbinafine). A total of 30 isolates of 5 different fungal species were tested in the combination test: 6 isolates each of Trichophyton tonsurans, Trichophyton rubrum, Epidermophyton floccosum, Trichophyton mentagrophytes and Microsporum canis. Clinical isolates were obtained by the Laboratory of Dr. M. Ghannoum at Case Western University.
(§3) Synergy was assessed using the fractional inhibitory concentration (FIC), an interaction coefficient, with the following definitions: […]

[5] = tested on: T. rubrum; experiment: as above; type: cell-based, Trichophyton rubrum; details: n=6 isolates; for Additivity # isolates / Additivity isolates (%): 0.5≦FIC≦1.0; for No Interaction # isolates: 1.0<FIC≦4.0; for Synergy # isolates / Synergy isolates (%): FIC<0.5
Method: as §2, §3

[6] = Compound 8 in combination with fluconazole, 0.5≦FIC≦1.0, n=6 isolates
[7] = Compound 8 in combination with fluconazole, 1.0<FIC≦4.0, n=6 isolates
[8] = Compound 8 in combination with fluconazole, FIC<0.5, n=6 isolates
[9] = Compound 8 in combination with fluconazole
[10] = Compound 8 in combination with itraconazole

## O=C(Cc1ccc(CCCCc2ccccc2)cc1)NO [Compound 8]
[1]; strain MRL 476
  Interpretation from ODDS: No interaction
[1]; strain MRL 477
  Interpretation from ODDS: Additive
[1]; strain MRL 670
  Interpretation from ODDS: Synergistic
[1]; strain MRL 9482
  Interpretation from ODDS: Addivtive
[2]; strain MRL 11256
  Interpretation from ODDS: Synergistic
[2]; strain MRL 12511
  Interpretation from ODDS: Additive
[2]; strain MRL 12680
  Interpretation from ODDS: No interaction
[3]; strain MRL 10152
  Interpretation from ODDS: Additive
[3]; strain MRL 10327
  Interpretation from ODDS: No interaction
[3]; strain MRL 10328
  Interpretation from ODDS: Synergistic
[4]; [6]
  Additivity # isolates: 4
  Additivity isolates (%): (67%)
[4]; [7]
  No Interaction # isolates: 1
  No Interaction isolates (%): (17%)
[4]; [8]
  Synergy # isolates: 1
  Synergy isolates (%): (17%)
[4]; Compound 8 in combination with itraconazole, 1.0<FIC≦4.0, N=5 isolates
  No Interaction # isolates: 4
[5]; [9]
  Additivity # isolates: 4
  Additivity isolates (%): (67%)
  No Interaction # isolates: 0
  Synergy # isolates: 2
  Synergy isolates (%): (33%)
[5]; [10]
  Additivity # isolates: 2
  Additivity isolates (%): (33%)
  No Interaction # isolates: 0
  Synergy # isolates: 4
  Synergy isolates (%): (67%)
